Test results reported in US20090093469A1, “Phenylaminopropanol Derivatives and Methods of Their Use” (WYETH, priority 2004, published 2009).
Where a name gives a salt, the structure may show the parent alone.

The compounds below were run against T1, hNET (Homo sapiens, UniProt P23975) (assay: Norepinephrine (NE) uptake assay in MDCK-Net6 cells stably transfected with human hNET). Settings: MDCK-Net6, read-out: % Inhibition @ 1 μM (hNET).
T1 construct: expressed in transfected cells
Type: cell-based
Procedure: Cells were plated at 300,000/T75 flask and cells were split twice weekly. […] Cells were plated at 250,000 cells/T75 flask and split twice weekly.
On day 1, cells were plated at 3,000 cells/well in growth medium and maintained in a cell incubator (37° C., 5% CO2). On day 2, growth medium was replaced with 200 μl of assay buffer (25 mM HEPES; 120 mM NaCl; 5 mM KCl; 2.5 mM CaCl2; 1.2 mM MgSO4; 2 mg/ml glucose (pH 7.4, 37° C.)) containing 0.2 mg/ml ascorbic acid and 10 μM pargyline. Plates containing cells with 200 μl of assay buffer were equilibrated for 10 minutes at 37° C. prior to addition of compounds. A stock solution of desipramine was prepared in DMSO (10 mM) and delivered to triplicate wells containing cells for a final test concentration of 1 μM. Data from these wells were used to define non-specific NE uptake (minimum NE uptake). Test compounds were prepared in DMSO (10 mM) and diluted in assay buffer according to test range (1 to 10,000 nM). Twenty-five microliters of assay buffer (maximum NE uptake) or test compound were added directly to triplicate wells containing cells in 200 μl of assay buffer. The cells in assay buffer with test compounds were incubated for 20 minutes at 37° C. To initiate the NE uptake, [^3H]NE diluted in assay buffer (120 nM final assay concentration) was delivered in 25 μl aliquots to each well and the plates were incubated for 5 minutes (37° C.). The reaction was terminated by decanting the supernatant from the plate. The plates containing cells were washed twice with 200 μl assay buffer (37° C.) to remove free radioligand. The plates were then inverted, left to dry for 2 minutes, then reinverted and air-dried for an additional 10 minutes. The cells were lysed in 25 μl of 0.25 N NaOH solution (4° C.), placed on a shake table and vigorously shaken for 5 minutes. After cell lysis, 75 μl of scintillation cocktail was added to each well and the plates were sealed with film tape. The plates were returned to the shake table and vigorously shaken for a minimum of 10 minutes to ensure adequate partitioning of organic and aqueous solutions. The plates were counted in a Wallac Microbeta counter (PerkinElmer) to collect the raw cpm data.
For each experiment, a data stream of cpm values collected from the Wallac Microbeta counter was downloaded to a Microsoft Excel statistical application program. Calculations of EC50 values were made using the transformed-both-sides logistic dose response program written by Wyeth Biometrics Department.

T1 sequence (P23975 whole entry): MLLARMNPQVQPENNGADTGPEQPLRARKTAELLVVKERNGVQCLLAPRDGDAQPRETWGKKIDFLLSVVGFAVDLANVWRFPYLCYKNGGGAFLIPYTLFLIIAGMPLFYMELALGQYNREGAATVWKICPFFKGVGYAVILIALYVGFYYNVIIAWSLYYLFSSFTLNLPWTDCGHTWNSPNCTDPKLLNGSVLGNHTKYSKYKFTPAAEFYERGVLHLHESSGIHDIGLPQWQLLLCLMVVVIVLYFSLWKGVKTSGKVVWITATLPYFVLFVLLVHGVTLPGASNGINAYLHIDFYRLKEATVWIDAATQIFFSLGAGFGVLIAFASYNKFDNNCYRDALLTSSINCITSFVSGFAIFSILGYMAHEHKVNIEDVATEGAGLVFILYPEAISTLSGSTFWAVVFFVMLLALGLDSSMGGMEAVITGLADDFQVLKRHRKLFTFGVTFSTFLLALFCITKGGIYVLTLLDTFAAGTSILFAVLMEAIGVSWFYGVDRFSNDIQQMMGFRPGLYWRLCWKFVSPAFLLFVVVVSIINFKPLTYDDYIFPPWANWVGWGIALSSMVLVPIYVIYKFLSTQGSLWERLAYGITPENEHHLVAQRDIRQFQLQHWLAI

Structure (SMILES)	inhibition at 1 µM
CNC[C@@H](O)[C@H](c1ccccc1C)n1ccc2ccccc21 (single isomer, unassigned) [Example 53, hydrochloride]	57.4%
CNC[C@H](O)[C@@H](c1ccccc1C)n1ccc2ccccc21 (single isomer, unassigned) [Example 54, hydrochloride]	68.6%
CNCC(O)[C@@H](c1ccccc1)n1ccc2ccccc21 (stereo in doubt) [Example 22, (1R,2S)-1-(1H-indol-1-yl)-3-(methylamino)-1-phenylpropan-2-ol hydrochloride]	83.8%
CNCC(O)[C@H](c1ccccc1)n1ccc2ccccc21 (stereo in doubt) [Example 23, (1S,2R)-1-(1H-indol-1-yl)-3-(methylamino)-1-phenylpropan-2-ol hydrochloride]	89.7%
CNC[C@@H](O)[C@H](c1cccc(Cl)c1)n1ccc2ccccc21 [Example 33, (1S,2R)-1-(3-chlorophenyl)-1-(1H-indol-1-yl)-3-(methylamino)propan-2-ol hydrochloride]	99.4%
CNC[C@@H](O)[C@H](c1ccc(Cl)cc1)n1ccc2ccccc21 [Example 34, (1S,2R)-1-(4-chlorophenyl)-1-(1H-indol-1-yl)-3-(methylamino)propan-2-ol hydrochloride]	78.4%
CNC[C@@H](O)[C@H](c1ccccc1Cl)n1ccc2ccccc21 [Example 38, (1S,2R)-1-(2-chlorophenyl)-1-(1H-indol-1-yl)-3-(methylamino)propan-2-ol hydrochloride]	71.9%
CNC[C@@H](O)[C@H](c1cccc(Br)c1)n1ccc2ccccc21 [Example 43, (1S,2R)-1-(3-bromophenyl)-1-(1H-indol-1-yl)-3-(methylamino)propan-2-ol hydrochloride]	99%
CNC[C@@H](O)[C@H](c1cccc(F)c1)n1ccc2ccccc21 [Example 47, (1S,2R)-1-(3-fluorophenyl)-1-(1H-indol-1-yl)-3-(methylamino)propan-2-ol hydrochloride]	99.9%
CNC[C@@H](O)[C@H](c1ccccc1F)n1ccc2ccccc21 [Example 50, (1S,2R)-1-(2-fluorophenyl)-1-(1H-indol-1-yl)-3-(methylamino)propan-2-ol hydrochloride]	91.8%
CNC[C@@H](O)[C@H](c1ccc(F)cc1)n1ccc2ccccc21 [Example 51, (1S,2R)-1-(4-fluorophenyl)-1-(1H-indol-1-yl)-3-(methylamino)propan-2-ol hydrochloride]	87%
CNC[C@@H](O)[C@H](c1cccc(C)c1)n1ccc2ccccc21 [Example 52, (1S,2R)-1-(1H-indol-1-yl)-3-(methylamino)-1-(3-methylphenyl)propan-2-ol hydrochloride]	94.3%
CNC[C@@H](O)[C@H](c1ccc(C)cc1)n1ccc2ccccc21 [Example 59, (1S,2R)-1-(1H-indol-1-yl)-3-(methylamino)-1-(4-methylphenyl)propan-2-ol hydrochloride]	93.2%
CNC[C@@H](O)[C@H](c1cccc(OC)c1)n1ccc2ccccc21 [Example 69, (1S,2R)-1-(1H-indol-1-yl)-1-(3-methoxyphenyl)-3-(methylamino)propan-2-ol hydrochloride]	87.5%
CNC[C@@H](O)[C@H](c1ccccc1)n1ccc2cc(F)ccc21 [Example 75, (1S,2R)-1-(5-fluoro-1H-indol-1-yl)-3-(methylamino)-1-phenylpropan-2-ol hydrochloride]	88.4%

Same assay, conditions: hydrochloride, 1 µM

Structure (SMILES)	% Inhibition @ 1 μM (hNET)
CNC[C@H](O)[C@H](c1ccccc1)n1ccc2ccccc21 (stereo in doubt) [Example 30, (1S,2S)-1-(1H-indol-1-yl)-3-(methylamino)-1-phenylpropan-2-ol hydrochloride]	79.7%
CNC[C@@H](O)[C@@H](c1ccccc1)n1ccc2ccccc21 [Example 29, (1R,2R)-1-(1H-indol-1-yl)-3-(methylamino)-1-phenylpropan-2-ol hydrochloride]	89.5%

Same assay, conditions: test compound 1 μM; [3H]NE uptake, MDCK-Net6 cells; read-out: % Inhibition @ 1 μM (hNET)

Structure (SMILES)	inhibition at 1 µM
CNC[C@@H](O)[C@H](c1ccc(OC(F)(F)F)cc1)n1ccc2ccccc21 (single isomer, unassigned) [Example 40, hydrochloride]	57.6%
CNC[C@H](O)[C@@H](c1ccc(OC(F)(F)F)cc1)n1ccc2ccccc21 (single isomer, unassigned) [Example 41, hydrochloride]	32.4%
OC(CNC1CC1)C(c1cccc(F)c1)n1ccc2ccccc21 (stereo in doubt) [Example 111, (1S,2R)-3-(cyclopropylamino)-1-(3-fluorophenyl)-1-(1H-indol-1-yl)propan-2-ol hydrochloride]	42.7%
CN1CCN(C[C@H](O)[C@@H](c2ccccc2)n2ccc3ccccc32)CC1 [Example 1, 1RS,2SR)-1-(1H-indol-1-yl)-3-(4-methylpiperazin-1-yl)-1-phenyl propan-2-ol dihydrochloride]	4.6%
CNC[C@@H](O)[C@H](c1cccc(OC(F)(F)F)c1)n1ccc2ccccc21 [Example 35, (1S,2R)-1-(1H-indol-1-yl)-3-(methylamino)-1-[3-(trifluoromethoxy)phenyl]propan-2-ol hydrochloride]	94.3%
CNC[C@@H](O)[C@H](c1ccccc1OC(F)(F)F)n1ccc2ccccc21 [Example 36, (1S,2R)-1-(1H-indol-1-yl)-3-(methylamino)-1-[2-(trifluoromethoxy)phenyl]propan-2-ol hydrochloride]	82.3%
CNC[C@H](O)[C@@H](c1ccccc1OC(F)(F)F)n1ccc2ccccc21 [Example 37, (1R,2S)-1-(1H-indol-1-yl)-3-(methylamino)-1-[2-(trifluoromethoxy)phenyl]propan-2-ol hydrochloride]	21.4%
NCC[C@@H](O)[C@H](c1cccc(Cl)c1)n1ccc2ccccc21 [Example 42, (1S,2R)-4-amino-1-(3-chlorophenyl)-1-(1H-indol-1-yl)butan-2-ol hydrochloride]	95.7%
CNC[C@@H](O)[C@H](c1cccc(C#N)c1)n1ccc2ccccc21 [Example 44, 3-[(1S,2R)-2-hydroxy-1-(1H-indol-1-yl)-3-(methylamino)propyl]benzonitrile hydrochloride]	98.2%
CNC[C@@H](O)[C@H](c1cccc(F)c1)n1cc(-c2cccc(C)c2)c2ccccc21 [Example 48, (1S,2R)-1-(3-fluorophenyl)-3-(methylamino)-1-[3-(3-methylphenyl)-1H-indol-1-yl]propan-2-ol hydrochloride]	96.6%
CNC[C@@H](O)[C@H](c1ccc(F)cc1)n1cc(C)c2ccccc21 [Example 49, (1S,2R)-1-(4-fluorophenyl)-3-(methylamino)-1-(3-methyl-1H-indol-1-yl)propan-2-ol hydrochloride]	101%
CCNC[C@@H](O)[C@H](c1cccc(F)c1)n1ccc2ccccc21 [Example 55, (1S,2R)-3-(ethylamino)-1-(3-fluorophenyl)-1-(1H-indol-1-yl)propan-2-ol hydrochloride]	61.1%
O[C@H](CN1CCOCC1)[C@H](c1cccc(F)c1)n1ccc2ccccc21 [Example 56, (1S,2R)-1-(3-fluorophenyl)-1-(1H-indol-1-yl)-3-morpholin-4-ylpropan-2-ol hydrochloride]	12.3%
CCCNC[C@@H](O)[C@H](c1cccc(F)c1)n1ccc2ccccc21 [Example 57, (1S,2R)-1-(3-fluorophenyl)-1-(1H-indol-1-yl)-3-(propylamino)propan-2-ol hydrochloride]	17.5%
CN1CCN(C[C@@H](O)[C@H](c2cccc(F)c2)n2ccc3ccccc32)CC1 [Example 58, (1S,2R)-1-(3-fluorophenyl)-1-(1H-indol-1-yl)-3-(4-methylpiperazin-1-yl)propan-2-ol dihydrochloride]	26.5%
CNC[C@@H](O)[C@H](c1cccc(F)c1)n1cc(-c2ccccc2C)c2ccccc21 [Example 62, (1S,2R)-1-(3-fluorophenyl)-3-(methylamino)-1-[3-(2-methylphenyl)-1H-indol-1-yl]propan-2-ol]	99.7%
CNC[C@@H](O)[C@H](c1ccccc1)N1CCc2cccc(C)c21 [Example 66, (1S,2R)-3-(methylamino)-1-(7-methyl-2,3-dihydro-1H-indol-1-yl)-1-phenylpropan-2-ol hydrochloride]	86.6%
